Read-outs that look alike come from different tables or passages of the source.
Legend:
Cerebral glycoproteins = Cerebral glycoproteins content (NANA) in rats on the 21st day of life; assay type: in vivo, rat
Description: (§1) The study has been performed with 16 couples of the rats Charles River in their reproductive age, selected by uniform weight. On the third day of gestation they have been arbitrarily divided into 4 groups. […] Dietetic treatment have been continued during the entire periods of gestation and nursing.
(§2) Between the 14th and the 21st day of the life, the puppies of the 2nd and the 4th group have been treated with 20 mg/kg of CMP-NANA (Sigma Chemical Co.) i.p., the 1st and the 3rd group have been treated with the equal volume of physiological solution.
(§3) On the 21st day two male puppies from each group have been fixed on the holed table and for 20 minutes placed under the open field experiment. The periods related to the explorative activity have been observed and quantified. At the end of the experiment, the animals have been sacrified by decapitation, and their brains have been removed and examined for the content of the gangliosides (extractions performed by the method of G. Tettamanti et al., Biochim. Biophys. Acta 296, 160-170 (1973) as well as of the glycoproteins (extractions by the method of B. Berra et al., in Membranes in Tumor Growth, Galeotti et al., Eds., Elsevier, pp. 81-87, 1982; F. Omodeo Sale et al., Cell Mol. Biol. 27, 455-458, 1981).
(§4) In both cases the content of NANA has been determined.

rats = experiment: Open field experiment, explorative activity of rat puppies on the 21st day of life; assay type: in vivo
Description: as §1, §2, §3

LD50 in albino rats = conditions: rat, in vivo, albino rats of 20±1 g
Storage stability = assay type: physicochemical; conditions: powder, -10° C.
Description: A 20 ml aliquot (containing about 8000 units of the enzyme) of the enzyme, CTP (4-5 mmol), N-acetylneuraminic acid (1 mmol) were added in portions, during 2 hours, to the solution (200 ml) of Tris-buffer, Mg^+2, and β-thio-propionic acid. The last three components were present in the concentrations 0.4, 0.04, and 0.002M, respectively. The mixture was incubated at 36°±0.2° C. for 6 hours, then diluted 8 times with water and rised slowly through a column of Dowex 1×4, bicarbonate form, 50-100 mesh (0.6 l resin/mmol of I). First washing was performed with 1 mM ammonium hydroxide, then with 3-4 vol. of a linear gradient from 0.02-2.0M triethylammonium hydrogencarbonate, pH 7.8.

Striatal gangliosides = experiment: Levels of striatal gangliosides of the rat following injuries by kainic acid; assay type: in vivo; conditions: for Striatal gangliosides (NANA content): relative to control = 100%
Description: Male rats, Charles River CD, body weight of 180-200 g, have been divided into 4 groups, each group having 20 animals. The first group has been classified as the control group, the second group has been treated with physiological solution, the third group has been treated with kainic acid and the fourth group has been treated with CMP-NANA (20 mg/kg/day, i.p.) and kainic acid.
The treatment with CMP-NANA has been started one week before the treatment with kainic acid and has been continued until the animals have been sacrified.
The animals have been anesthetized with pentobarbital (60 mg/kg i.p.) and then treated with kainic acid (2 μg in 1 μl of the physiological solution), that has been injected into striatum.
The control rats have been treated with an equal volume (1 μl) of the physiological solution.
After 7 days the rats have been sacrified and the striatum has been removed. Each single determination has been performed with the pool of 5 samples. The gangliosides have been extracted and determined (as NANA content) as described previously.

[1] = system: Neuro-2a neurine neuroblastoma; experiment: In vitro neuronal maturation, index of maturation of neuroblastoma cells; assay type: cell-based; conditions: for Index of maturation (I.M.): standard media 10 ± 2, I.M. = L.P. × N.P.
Description: Neuro-2a neurine neuroblastoma (American Type Culture Collection-CCL 131) was grown in the medium consisting of fecal calf serum (Irvine Scientific, Irvine, Ca.), to which non-essential amino acids, antibiotic (5-20 mg %), and bicarbonate (50-100 mg %), were added. The cells were grown routinely on corning plastic tissue-culture flasks.
Cells for assay were plated on corning plastic Petri dishes, in the medium with or without CMP-NANA. In order to examine the role of CMP-NANA on in vitro neuron maturation, it was incorporated into the culture media at the time of plating or 24 or 48 hours postplating. The mean number and length of cell processes were repeatedly determined for a minimum of 100 cells per treatment group, to provide a semiquantitative index of neuron maturation (Table 5).
Index of maturation (I.M.) in Table 5 is expressed as: I.M.=L.P.×N.P., where:
L.P. 10:=the length of process to nearest 10μ
N.P.=Total number of processes
The effects of the various concentrations of CMP-NANA were evaluated with high resolution Nomarski optics.

Cerebral gangliosides = Cerebral gangliosides content (NANA) in rats on the 21st day of life; assay type: in vivo, rat
From the text: The study has been performed with 16 couples of the rats Charles River in their reproductive age, selected by uniform weight. On the third day of gestation they have been arbitrarily divided into 4 groups. The two first groups have been fed with a semisynthetic diet that contained 10% of casein. Dietetic treatment have been continued during the entire periods of gestation and nursing.
as §2, §3, §4

Neuro-2a cells = experiment: CMP-NANA-induced neurite formation (sprouting) in cultured cells; assay type: cell-based
Description: Neuro-2a cells (American Type Culture Collection, Rockville, USA) were seeded at standard conditions (10^4 -10^6 cells/100 mm dish). Incubation time for quantification of sprouting was 24 hours. Thereafter fixation of the cells was performed by means of 3% glutaraldehyde containing buffered saline. Quantitative determination of nerve cell growth was performed with Zeiss D-7082 Micreo-Videomat.
Neurite sprouting was used as the parameter for nerve cell differentiation. The samples fixed in formaline were stained for better contrast.

Acid hydrolysis at pH 1 = assay type: physicochemical; conditions: pH 1, 10 min, room temperature
Description: [α]D =-11.8° (c=0.2, water).

[2] = Adsorption and distribution of labeled CMP-NANA in the rat; assay type: in vivo; conditions: 20 mg/kg i.m.; for Radioactivity level: Blood; for tissue uptake at 0.5 h / tissue uptake at 1 h / tissue uptake at 2 h / tissue uptake at 4 h: im, read-out: Radioactivity level
Description: CMP-NANA [9-^3 H] has been purchased from NEN (New England Nuclear, 6072 Dreieich, West Germany).
The rats fasting for about 18 hours, have been treated with CMP-NANA, dissolved in the phosphate buffer, at the dose of 20 mg/kg i.m. (specific activity=1000 mCi/mg). After 30 min., 1 hour, 2 hours and 4 hours periods the animals have been sacrified in the groups of 4, then liver, kidney and brain have been taken away from the animals and accurately weighted.
100 μg samples of the previous organs, and an analogous sample of the blood have been dissolved in Soluene 350 (Packard) and have been counted on the scintillation instrument in the liquid phase, on addition of the scintillating liquid.
The measurements have been quantized using a canal to canal-ratio technique. Table 3 illustrates the averaged results of all measurements.

[3] = normal and hypoproteinic diet, 20 mg/kg i.p.

For `CC(=O)N[C@H]1[C@H]([C@H](O)[C@H](O)CO)O[C@](OP(=O)(O)OC[C@H]2O[C@@H](n3ccc(N)nc3=O)[C@H](O)[C@@H]2O)(C(=O)O)C[C@@H]1O` [CMP-NANA, cytidine monophosphate of 5-acetamido-3,5-dideoxy-D-glycero-D-galactononulosaminic acid], the Cerebral glycoproteins (Cerebral glycoproteins; Group 2: 20% casein + CMP-NANA 20 mg/kg i.p., relative to 2nd group = 100% (reference), p < 0.01-0.001 vs nontreatment (Group 1: 79)) was 100%, the Cerebral glycoproteins (Cerebral glycoproteins; Group 4: 10% casein + CMP-NANA 20 mg/kg i.p., relative to 2nd group = 100%, p < 0.01-0.001 vs nontreatment (Group 3: 69)) was 75% and the “NANA content in the cerebral glycoproteins (in words)” value (Cerebral glycoproteins; [3]) was “inhanced in statistically significant manner”. For the same molecule, the Explorative activity (rats; Group 2: 20% casein + CMP-NANA 20 mg/kg i.p., relative to 2nd group = 100% (reference), p < 0.01-0.001 vs nontreatment (Group 1: 47)) was 100%, the Explorative activity (rats; Group 4: 10% casein + CMP-NANA 20 mg/kg i.p., relative to 2nd group = 100%, p < 0.01-0.001 vs nontreatment (Group 3: 12)) was 52% and the “explorative activity (in words)” value (rats; [3]) was “inhanced in statistically significant manner”. For the same molecule, the LD50 (LD50 in albino rats; ip, intraperitoneal) was 900 mg/kg, the LD50 (LD50 in albino rats; po, per os) was 2400 mg/kg and the storage stability (Storage stability) was “at least one year”. The “level of gangliosides in the striatum (in words)” value (Striatal gangliosides; CMP-NANA 20 mg/kg/day i.p. with kainic acid) was “hindered the diminuation of the level of gangliosides in the striatum”, the “Striatal gangliosides (NANA content)” value (Striatal gangliosides; Group 4: kainic acid (2 μg into striatum) and CMP-NANA 20 mg/kg/day i.p.) was 88% and the “change of I.M. versus standard media (in words)” value ([1]; 2 μg/ml) was “doubled”. The “change of I.M. versus standard media (in words)” value ([1]; 20 μg/ml) was “ten time higher”, the “Index of maturation (I.M.)” value ([1]; SM + 1 μg/ml) was 20 ± 5 and the “Index of maturation (I.M.)” value ([1]; SM + 5 μg/ml) was 45 ± 5. For the same molecule, the “Index of maturation (I.M.)” value ([1]; SM + 10 μg/ml) was 68 ± 10, the “Index of maturation (I.M.)” value ([1]; SM + 20 μg/ml) was 92 ± 10 and the Cerebral gangliosides (Cerebral gangliosides; Group 2: 20% casein + CMP-NANA 20 mg/kg i.p., relative to 2nd group = 100% (reference), p < 0.01-0.001 vs nontreatment (Group 1: 75)) was 100%. For the same molecule, the Cerebral gangliosides (Cerebral gangliosides; Group 4: 10% casein + CMP-NANA 20 mg/kg i.p., relative to 2nd group = 100%, p < 0.01-0.001 vs nontreatment (Group 3: 41)) was 68%, the “NANA content in the cerebral gangliosides (in words)” value (Cerebral gangliosides; [3]) was “inhanced in statistically significant manner” and the “sprouting of the nerves (in words)” value (Neuro-2a cells; 50 μg/ml) was “nearly doubled”. The “dose-response relationship for number of neurites (in words)” value (Neuro-2a cells; 5-50 μg/ml, 24 hours) was “close dose-response relationship”, the “increase of sprouting above the original steady-state value” (Neuro-2a cells; 30 μ/ml (so in the source)) was roughly 50% and the activity at 5 µg/mL (Neuro-2a cells; Mus musculus, N2a, 5 μg/ml, 24 hours, 0 μg/ml = 100 ± 15, read-out: Extent of sprouting) was 110 ± 15%. The activity at 10 µg/mL (Neuro-2a cells; Mus musculus, N2a, 10 μg/ml, 24 hours, 0 μg/ml = 100 ± 15, read-out: Extent of sprouting) was 117 ± 20%, the activity at 20 µg/mL (Neuro-2a cells; Mus musculus, N2a, 20 μg/ml, 24 hours, 0 μg/ml = 100 ± 15, read-out: Extent of sprouting) was 132 ± 25% and the activity at 30 µg/mL (Neuro-2a cells; Mus musculus, N2a, 30 μg/ml, 24 hours, 0 μg/ml = 100 ± 15, read-out: Extent of sprouting) was 145 ± 30%. The activity at 50 µg/mL (Neuro-2a cells; Mus musculus, N2a, 50 μg/ml, 24 hours, 0 μg/ml = 100 ± 15, read-out: Extent of sprouting) was 178 ± 35% and the hydrolysis in acid (Acid hydrolysis at pH 1) was “affording CMP and N-acetylneuraminic acid (1.0:1.0 mol)”.

With `[3H]C(O)[C@@H](O)[C@@H](O)[C@@H]1O[C@](OP(=O)(O)OC[C@H]2O[C@@H](n3ccc(N)nc3=O)[C@H](O)[C@@H]2O)(C(=O)O)C[C@H](O)[C@H]1NC(C)=O` (stereo partly drawn) [[^-3 H]-labeled CMP--NANA] the “radioactivity decline in blood and organs (in words)” value [2] was “rapidly diminished in the blood, and more slowly in the organs”, the “radioactivity level of the brain relative to liver and kidney (in words)” value [2] was “inferior to those of the liver and kidney” and the Radioactivity level ([2]; 30 min) was 12.2 % of the administrated dose pe. The Radioactivity level ([2]; 1 hr) was 5.7 % of the administrated dose pe, the Radioactivity level ([2]; 2 hrs) was 3.2 % of the administrated dose pe and the Radioactivity level ([2]; 4 hrs) was 1.9 % of the administrated dose pe. For the same molecule, the tissue uptake at 0.5 h ([2]; Brain, 30 min) was 6.2 %ID/g, the tissue uptake at 1 h ([2]; Brain, 1 hr) was 7.8 %ID/g and the tissue uptake at 2 h ([2]; Brain, 2 hrs) was 4.9 %ID/g. For the same molecule, the tissue uptake at 4 h ([2]; Brain, 4 hrs) was 2.4 %ID/g, the tissue uptake at 0.5 h ([2]; Kidney, 30 min) was 2.6 %ID/g and the tissue uptake at 1 h ([2]; Kidney, 1 hr) was 5.2 %ID/g. The tissue uptake at 2 h ([2]; Kidney, 2 hrs) was 3.3 %ID/g, the tissue uptake at 4 h ([2]; Kidney, 4 hrs) was 1.6 %ID/g and the tissue uptake at 0.5 h ([2]; Liver, 30 min) was 3.9 %ID/g. The tissue uptake at 1 h ([2]; Liver, 1 hr) was 4.7 %ID/g, the tissue uptake at 2 h ([2]; Liver, 2 hrs) was 2.8 %ID/g and the tissue uptake at 4 h ([2]; Liver, 4 hrs) was 0.9 %ID/g.

In the case of `C=C(C)[C@H]1CN[C@H](C(=O)O)[C@H]1CC(=O)O` [kainic acid, reference compound], the “Striatal gangliosides (NANA content)” value (Striatal gangliosides; Group 3: kainic acid alone, 2 μg into striatum) is reported as 66%.

— US4704361A, “Pharmaceutical compositions containing the cytidine monophospate of 5-acetamido-3,5-dideoxy-D-glycero-D-galactononulosaminic acid and a method for preparing said compound” (Compagnia di Ricerca Chimica S.p.A., priority 1983, dated 1987)
